According to patent publication US20250026773A1, “MONO-P-TOLUENESULFONATE OF AXL KINASE INHIBITOR AND CRYSTAL FORM THEREOF” (NANJING CHIA TAI TIANQING PHARMACEUTICAL CO., LTD., priority 2021, published 2025):
Blank lines part the entries; values can stand above or below the molecule they belong to.

What was measured:
[1] = Pharmacokinetic study in ICR mice; format: in vivo; conditions: male, mouse, po, 10 mg·kg^-1 by gavage, plasma
Procedure: Each compound was prepared into a 10 mg/mL stock solution with DMSO.
Mixed solvent preparation: Tween 80:PEG 400:Water=1:9:90 (v/v/v).
Accurately aspirated 450 μL of DMSO stock solution of the compounds at a concentration of 10 mg/mL to a glass vial, respectively, added an appropriate volume of DMSO and mixed solvent, the ratio of solvent in the final preparation is DMSO:mixed solvent (v/v)=10:90, vortexed (or sonicated), dispersed homogeneously, to obtain the concentration of 1 mg/mL of 4.5 mL of the administered test solution respectively.
Male 6-10 weeks old ICR mice (mouse source: Viton Lever Laboratory Animal Technology Co., Ltd.) were taken, 6 mice in each group, and the mice were fasted overnight and fed 4 hours after drug administration. On the day of the experiment, mice were given 10 mg·kg^−1 of compound test solution by gavage respectively. After the administration of the drug, mice were blood sampled at 0, 5 min, 15 min, 30 min, 1 h, 2 h, 4 h, 8 h, and 24 h from the orbital region of about […], which was placed in EDTA-K2 anticoagulant tubes. […] Plasma concentration was determined by LC-MS/MS method.
Pharmacokinetic parameters were calculated using the non-compartment model in Pharsight Phoenix 7.0, and the results are detailed in the following table.

[2] = Physicochemical stability study of crystal forms (XRPD and HPLC)
From the text: Use XRPD and HPLC to detect the physical and chemical stability of the samples.

[3] = Solubility in water and various pH media; format: physicochemical; conditions: thermodynamic from solid
[4] = After placement, 60° C., 5 days
[5] = After placement, 60° C., 10 days
[6] = After placement, 60° C., 30 days
[7] = After placement, 40° C./75% RH, 5 days
[8] = After placement, 40° C./75% RH, 10 days
[9] = After placement, 40° C./75% RH, 30 days
[10] = After placement, 75% RH, 5 days
[11] = After placement, 75% RH, 10 days
[12] = After placement, 75% RH, 30 days
[13] = After placement, 92.5% RH, 5 days
[14] = After placement, 92.5% RH, 10 days
[15] = After placement, Light, 10 days

half-life [1]: 1.2 h
Structure (SMILES): CN1CCN(Cc2ccc(Nc3ncc(Cl)c(Nc4ccccc4S(=O)(=O)N(C)C)n3)cc2)CC1 [Positive drug 2 (TP0903), reference compound]

Crystal form [2, 4]: Crystal form A | Maximum single impurity [2, 4]: impurity: 0.75 A % | Purity [2, 4]: Purity: 96.39 A % | Crystal form [2, 5]: Crystal form A | Maximum single impurity [2, 5]: impurity: 1.21 A % | Purity [2, 5]: Purity: 94.49 A % | Maximum single impurity [2, 6]: impurity: 2.02 A % | Purity [2, 6]: Purity: 89.65 A % | Crystal form ([2]; Before placement): Crystal form A | Maximum single impurity ([2]; Before placement): impurity: 0.05 A % | Purity ([2]; Before placement): Purity: 99.33 A %
Structure (SMILES): COCc1ccc(Nc2nc(Nc3ccc4c(c3)CC[C@@H](N3CCCC3)CC4)ncc2Cl)c(P(C)(C)=O)c1 [free base crystal form A, (S)-(2-((5-chloro-2-((7-(pyrrolidin-1-yl)-6,7,8,9-tetrahydro-5H-benzo[7]annulen-2-yl)amino)pyrimidin-4-yl)amino)-5-(methoxymethyl)phenyl)dimethylphosphine oxide]

solubility ([3]; potassium dihydrogen phosphate/sodium hydroxide buffer, aqueous buffer, pH 6.0, potassium dihydrogen phosphate/sodium hydroxide): 1900 µg/mL | solubility ([3]; potassium dihydrogen phosphate/sodium hydroxide buffer, aqueous buffer, pH 6.8, potassium dihydrogen phosphate/sodium hydroxide): 2100 µg/mL | solubility ([3]; potassium dihydrogen phosphate/sodium hydroxide buffer, aqueous buffer, pH 7.4, potassium dihydrogen phosphate/sodium hydroxide): 2100 µg/mL | solubility ([3]; simulated gastric fluid, pH 1.0, dilute hydrochloric acid with water): 87200 µg/mL | solubility ([3]; simulated gastric fluid, pH 2.0, dilute hydrochloric acid with water): 4700 µg/mL | solubility ([3]; sodium acetate trihydrate/glacial acetic acid buffer, aqueous buffer, pH 4.5, sodium acetate trihydrate/glacial acetic acid): 2000 µg/mL | solubility ([3]; water): 1400 µg/mL | Crystal form [2, 7]: Crystal form B | Maximum single impurity [2, 7]: Maximum single impurity: 0.04 A % | Purity [2, 7]: Purity: 99.81 A % | Crystal form [2, 8]: Crystal form B | Maximum single impurity [2, 8]: Maximum single impurity: 0.04 A % | Purity [2, 8]: Purity: 99.82 A % | Crystal form [2, 9]: Crystal form B | Maximum single impurity [2, 9]: Maximum single impurity: 0.04 A % | Purity [2, 9]: Purity: 99.81 A % | Crystal form [2, 4]: Crystal form B | Maximum single impurity [2, 4]: Maximum single impurity: 0.04 A % | Purity [2, 4]: Purity: 99.81 A % | Crystal form [2, 5]: Crystal form B | Maximum single impurity [2, 5]: Maximum single impurity: 0.04 A % | Purity [2, 5]: Purity: 99.82 A % | Crystal form [2, 6]: Crystal form B | Maximum single impurity [2, 6]: Maximum single impurity: 0.04 A % | Purity [2, 6]: Purity: 99.80 A % | Crystal form [2, 10]: Crystal form B | Maximum single impurity [2, 10]: Maximum single impurity: 0.04 A % | Purity [2, 10]: Purity: 99.81 A % | Crystal form [2, 11]: Crystal form B | Maximum single impurity [2, 11]: Maximum single impurity: 0.04 A % | Purity [2, 11]: Purity: 99.82 A % | Crystal form [2, 12]: Crystal form B | Maximum single impurity [2, 12]: Maximum single impurity: 0.04 A % | Purity [2, 12]: Purity: 99.80 A % | Crystal form [2, 13]: Crystal form B | Maximum single impurity [2, 13]: Maximum single impurity: 0.04 A % | Purity [2, 13]: Purity: 99.81 A % | Crystal form [2, 14]: Crystal form B | Maximum single impurity [2, 14]: Maximum single impurity: 0.04 A % | Purity [2, 14]: Purity: 99.82 A % | Crystal form ([2]; After placement, Light, 5 days): Crystal form B | Maximum single impurity ([2]; After placement, Light, 5 days): Maximum single impurity: 0.05 A % | Purity ([2]; After placement, Light, 5 days): Purity: 99.67 A % | Crystal form [2, 15]: Crystal form B | Maximum single impurity [2, 15]: Maximum single impurity: 0.10 A % | Purity [2, 15]: Purity: 99.60 A % | Crystal form ([2]; Before placement): Crystal form B | Maximum single impurity ([2]; Before placement): impurity: 0.04 A % | Purity ([2]; Before placement): Purity: 99.81 A %
Structure (SMILES): COCc1ccc(Nc2nc(Nc3ccc4c(c3)CC[C@@H](N3CCCC3)CC4)ncc2Cl)c(P(C)(C)=O)c1.Cc1ccc(S(=O)(=O)O)cc1 [crystal form B, mono-p-toluenesulfonate monohydrate of (S)-(2-((5-chloro-2-((7-(pyrrolidin-1-yl)-6,7,8,9-tetrahydro-5H-benzo[7]annulen-2-yl)amino)pyrimidin-4-yl)amino)-5-(methoxymethyl)phenyl)dimethylphosphine oxide]

half-life [1]: 1.35 h
Structure (SMILES): COCc1ccc(Nc2nc(Nc3ccc4c(c3)CC[C@@H](N3CCCC3)CC4)ncc2Cl)c(P(C)(C)=O)c1 [Example 1, (S)-(2-((5-chloro-2-((7-(pyrrolidin-1-yl)-6,7,8,9-tetrahydro-5H-benzo[7]annulen-2-yl)amino)pyrimidin-4-yl)amino)-5-(methoxymethyl)phenyl)dimethylphosphine oxide]
